Experimental data taken from patent publication US11986493B2 (University of Pittsburgh—Of the Commonwealth System of …, priority 2013, dated 2024).
Like-named read-outs stand apart in the source and are kept apart here.

Details: after inhalation
Excerpt: Measurement was made on mixed venous blood using PCW pullback samples at baseline (pre-dose) and at the maximally tolerated dose.

O=NO [nitrite, sodium nitrite]
plasma nitrite concentration (45 mg dose): 5 to 7 µM
plasma nitrite concentration (90 mg dose): 8 to 10 µM
